Measurements reported in publication PMC5309247, “A Role of Corazonin Receptor in Larval-Pupal Transition and Pupariation in the Oriental Fruit Fly Bactrocera dorsalis (Hendel) (Diptera: Tephritidae)” (Frontiers in Physiology, 2017).
Like-named read-outs stand apart in the source and are kept apart here.

Key:
DmCrzR = conditions: ref Cazzamali et al., [2002], Park et al., [2002b], cited from earlier work
Text: (§1) The CrzR is a member of the GPCR family having seven TM domains. Since the first CrzR was identified in Drosophila, homologous receptors have been predicted in several genome databases (Sha et al., [2012]).

[1] = test system: head-ligated B. dorsalis larvae; experiment: Rescue of larval-pupal transition by peptide injection in head-ligated larvae; type: in vivo, Bactrocera dorsalis; conditions: 0.3 pmol in 300 nL, 24 h post-injection; for rescue of pupariation in head-ligated larvae: in words
Protocol: The peptides of Crz and ETH of B. dorsalis were synthesized by Genescript (Nanjing, China), and the adipokinetic hormone (AKH) peptide of Bombyx mori (BmAKH) was a gift from Dr. Naiming Zhou (Zhejing University, China; Yang et al., [2013]). The amino acid (aa) sequences for Crz, ETH and AKH were added in Table 1. Plasmids were prepared using the MIDIprep kit as purchased from Qiagen (Valencia, CA). The reagents for cell culture and GPCR assay were purchased from Gibco cell culture at Life Technologies (Grand Island, NY), including fetal bovine serum, DMEM/F12 medium, fungizone, penicillin/streptomycin, and coelenterazine. The transfection reagent (TransIt) was purchased from Mirus Bio (Madison, WI).
The experimental setup with head-ligated 2-day-old 3rd-instar larvae was based on a previous study (Kim et al., [2004]). […] Upon head-ligation, a series of larvae was injected with Crz (0.3 pmol in 300 nL) or ETH (0.3 pmol in 300 nL). Upon injection larvae were kept on an artificial diet as described above, and we scored pupal development at 24 h post-injection. Per treatment, we used 20 larvae and three biological replicates were conducted. Typical phenotype effects were captured with a Leica M205A stereomicroscope with a camera (Leica Microsystems, Wetzlar, Germany).

BdCrzR = experiment: Ca2+ mobilization luminescence (aequorin) assay in BdCrzR-expressing CHO cells; type: cell-based, Bactrocera dorsalis; conditions: for Ca2+ response of BdCrzR-expressing CHO cells: CHO cells with aequorin and Gα16, 10-fold serial dilution of peptide
Protocol: The ORF for BdCrzR was inserted into the expression vector pcDNA3.1 (+). The correct clone of pcDNA3.1-BdCrzR was confirmed by sequencing (Invitrogen). Chinese Hamster Ovary (CHO) cells, supplemented with aequorin, and Gα16 subunit, were employed for the heterologous expression. The methods for the transfection and the Ca^2+ mobilization assay were performed as previously described (Jiang et al., [2014]). Briefly, cells were transfected with the pcDNA3.1(+)-BdCrzR using TransIT-LT1 transfection reagent (Mirus Bio). At 30 h after the transfection, the cells were collected and incubated with the coelenterazine (Invitrogen) for 2.5 h prior to the functional assay. The cells transfected with the empty pcDNA3.1 vector, were used as a negative control.
The luminescence assay was performed by measuring the intracellular Ca^2+ mobilization of the transfected CHO cells. A 10-fold serial dilution of the peptides (BdCrz and BmAKH) was applied to the cells. The luminescence caused by the intracellular calcium mobilization was measured within 20 s in every half-second intervals by a TriStar^2 LB 942 Multimode Reader (Berthold Technologies, Bad Wildbad, Germany; Jiang et al., [2013], [2014]). The lowest concentration of BdCrz ligand showing the maximum activation of the receptor, was selected for luminescence normalization. Based on that, a concentration-response curve was calculated for BdCrz by logistic fitting in Origin 8.6 (OriginLab Corporation, Northampton, MA). All experiments were conducted with three biological replicates.

Schistocerca americana = conditions: ref Veenstra, [1991]; cited from earlier work
Text: (§2) Neuropeptides play a central role in regulating numerous vital physiological systems and behavioral events in diverse insects. The multiple functions of insect neuropeptides make them a prime practical potential target in the development of novel insect control agents (Boonen et al., [2009]).

MsCrzR = conditions: ref Kim et al., [2004], cited from earlier work
Text: as §1

Bombyx mori larvae = conditions: injection into larvae; ref Tanaka et al., [2002]; cited from earlier work
Text: Crz is highly conserved with respect to spatial expression pattern, but no clear pattern of function has emerged.

Periplaneta americana = conditions: ref Veenstra, [1989]; cited from earlier work
Text: as §2

DmCrz: Corazonin of Drosophila melanogaster (NP_524350.1) (QTFQYSRGWTN; Corazonin; UniProt Q26377 20-30, looked up)
EC50 (DmCrzR; DmCrzR-transfected CHO cells): 18 nM
EC50 (DmCrzR; Xenopus oocyte cells): 1 nM

pAsn-Glu-Ser-Pro-Gly-Phe-Phe-Leu-Lys-Ile-Thr-Lys-Asn-Val-Pro-Arg-Leu-NH2 [BdETH, ecdysis-triggering hormone (ETH) of B. dorsalis, synthesized by Genescript, reference compound]
rescue of pupariation in head-ligated larvae [1]: the same result was also observed

pCys-Glu-Leu-Thr-Phe-Ser-Pro-Asp-Thr-NH2 [BmAKH, adipokinetic hormone (AKH) peptide of Bombyx mori, reference compound]
Ca2+ response of BdCrzR-expressing CHO cells (BdCrzR): no responses
Ca2+ response of BdCrzR-expressing CHO cells (BdCrzR; listed as AKH): did not respond

pGln-Thr-Phe-Gln-Tyr-Ser-His-Gly-Trp-Thr-Asn-NH2 [[His^7]-Crz]
dark-inducing activity (Schistocerca americana): dark-inducing peptide

pGln-Thr-Phe-Gln-Tyr-Ser-His-Gly-Trp-Thr-Ser-NH2 [BdCrz, mature corazonin of Bactrocera dorsalis, …amide, synthesized by Genescript]
EC50 (BdCrzR; CHO cells with aequorin and Gα16, transiently expressing BdCrzR, Ca2+ luminescence within 20 s, logistic fit, three independent measurements, each three replicates): 52.5 nM
Ca2+ response of BdCrzR-expressing CHO cells (BdCrzR): concentration-dependent Ca^2+ responses
head-ligated larvae that made the transition from the larval to the pupal stage ([1]; 20 larvae per treatment, three biological replicates): 97%
rescue of pupariation in head-ligated larvae [1]: could rescue the effects
EC50 (MsCrzR; CHO): 0.2 nM
EC50 (MsCrzR; Xenopus oocyte-expression system): 0.075 nM
pupal development (Bombyx mori larvae): prolonged pupal development
silk spinning rate (Bombyx mori larvae): reduced the silk spinning rate
cardioacceleratory activity (Periplaneta americana): cardioacceleratory peptide
